Drawing on patent US7705030B2, “Amino-5-(5-membered)hetero-arylimidazolone compounds and the use thereof for β-secretase modulation” (Wyeth LLC, priority 2005, dated 2010), this text covers IC50 and melting point for 31 molecules.

For one data set, the target named is human BACE1 (Homo sapiens, UniProt P56817). The data set is described as follows: Fluorescent kinetic assay: Evaluation of BACE-1 Binding Affinity of Test Compounds. The format is biochemical. The following applies: 10 nM enzyme, 25 μM substrate WABC-6, 50 mM Na-Acetate pH 4.5, room temperature. The method, then:
Evaluation of BACE-1 Binding Affinity of Test Compounds
Fluorescent Kinetic Assays
Final Assay Conditions: 10 nM human BACE1 (or 10 nM Murine BACE1, 1.5 nM human BACE2), 25 μM substrate (WABC-6, MW 1549.6, from AnaSpec), Buffer: 50 mM Na-Acetate, pH 4.5, 0.05% CHAPS, 25% PBS, room temperature. Na-Acetate was from Aldrich, Cat.# 24, 124-5, CHAPS was from Research Organics, Cat. # 1304C 1×, PBS was from Mediatech (Cellgro), Cat# 21-031-CV, peptide substrate Abz[…]pa was from AnaSpec, Peptide Name: WABC-6 Determination of stock substrate (Abz[…]pa) concentration: ˜25 mM stock solution is made in DMSO using the peptide weight and MW, and diluted to ˜25 μM (1:1000) in 1×PBS. Concentration is determined by absorbance at 354 nm using an extinction coefficient ε of 18172 M^−1 cm^−1, the concentration of stock substrate is corrected, and the substrate stock stored in small aliquots in −80° C. [Substrate Stock]=ABS^354 nm*10^6/18172 (in […]) The extinction coefficient ε^354 nm was adapted from TACE peptide substrate, which had the same quencher-fluorophore pair.
Determination of Stock Enzyme Concentration: the stock concentration of each enzyme is determined by absorbance at 280 nm using an ε of 64150 M^−1 cm^−1 for hBACE1 and MuBACE1, 62870 M^−1 cm^−1 for hBACE2 in 6 M Guanidinium Hydrochloride (from Research Organics, Cat. # 5134G-2), pH ˜6. The extinction coefficient ε^280 nm for each enzyme was calculated based on known amino acid composition and published extinction coefficients for Trp ([…]) and Tyr ([…]) residues (Anal. Biochem. 182, 319-326).
Dilution and mixing steps: total reaction volume: 100 μL
2× inhibitor dilutions in buffer A(66.7 mM Na-Acetate, pH 4.5, 0.0667% CHAPS) were prepared,
4× enzyme dilution in buffer A(66.7 mM Na-Acetate, pH 4.5, 0.0667% CHAPS) were prepared,
100 μM substrate dilution in 1×PBS was prepared, and
50 μL 2× Inhibitor, 25 μL 100 μM substrate are added to each well of 96-well plate (from DYNEX Technologies, VWR #: 11311-046), immediately followed by 25 μL 4× enzyme (added to the inhibitor and substrate mix), and the fluorescence readings are initiated.
Fluorescence Readings: Readings at λex 320 nm and λem 420 nm are taken every 40 sec for 30 min at room temperature and the linear slope for substrate cleavage rate (vi) determined.
Testing at least 10 different inhibitor concentrations is preferred.

Molecules are shown by their SMILES. Where a name gives a salt, the structure may show the parent alone. Where only a bound is given, the exact number is not on record here.

Chain of human BACE1 (P56817 46-501): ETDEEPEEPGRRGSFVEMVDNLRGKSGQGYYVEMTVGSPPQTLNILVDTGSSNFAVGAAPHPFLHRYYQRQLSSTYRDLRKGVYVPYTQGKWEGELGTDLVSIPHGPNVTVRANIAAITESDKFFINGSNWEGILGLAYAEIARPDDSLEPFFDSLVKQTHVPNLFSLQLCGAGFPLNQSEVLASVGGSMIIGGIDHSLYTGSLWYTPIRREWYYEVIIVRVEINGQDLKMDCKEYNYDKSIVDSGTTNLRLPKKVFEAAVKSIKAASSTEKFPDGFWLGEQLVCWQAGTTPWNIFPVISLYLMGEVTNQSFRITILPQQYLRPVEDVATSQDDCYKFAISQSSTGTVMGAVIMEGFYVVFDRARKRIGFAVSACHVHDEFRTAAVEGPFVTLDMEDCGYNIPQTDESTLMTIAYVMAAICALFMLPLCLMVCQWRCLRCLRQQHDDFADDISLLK

The IC50 is the concentration that gives 50% inhibition. Read a low IC50 as greater potency. Usually melting point stands for the temperature of the solid-liquid transition. `CN1C(=O)C(c2cccc(OCc3ccccc3)c2)(c2cnn(CC(F)(F)F)c2)N=C1N` (stereo not shown) [Example 92, 2-amino-5-[3-(benzyloxy)phenyl]-3-methyl-5-[1-(2,2,2-trifluoroethyl)-1H-pyrazol-4-yl]-3,5-dihydro-4H-imidazol-4-one]: the melting point fell in the range of 85 to 87 °C. For the same molecule, the half-maximal inhibitory concentration (IC50) at human BACE1 was above 1000 nM.

Take `COc1ccc(C2(c3ccc(-c4ccc(F)cc4)s3)N=C(N)N(C)C2=O)cc1C` (stereo not shown) [Example 110, 2-Amino-5-[5-(4-fluorophenyl)thien-2-yl]-5-(4-methoxy-3-methylphenyl)-3-methyl-3,5-dihydro-4H-imidazol-4-one]: the melting point turned out to be 110 °C. Moreover, the IC50 at human BACE1 was 110 to 1000 nM.

`CCn1cc(C2(c3ccc(F)c(-c4cccnc4F)c3)N=C(N)N(C)C2=O)cn1` (stereo not shown) [Example 10, 2-Amino-5-(1-ethyl-1H-pyrazol-4-yl)-5-[4-fluoro-3-(2-fluoropyridin-3-yl)phenyl]-3-methyl-3,5-dihydro-4H-imidazol-4-one] returned a melting point of 84 to 85 °C. Besides, the 50% inhibitory concentration (IC50) at human BACE1 fell in the range of 10 to 100 nM.

With `CCn1cc(C2(c3cccc(-c4cccnc4F)c3)N=C(N)N(C)C2=O)cc1C(=O)C(C)C` (stereo not shown) [Example 173], the melting point lay within 85 to 88 °C. Besides, the IC50 on human BACE1 fell in the range of 10 to 100 nM.

`CN1C(=O)C(c2cc[nH]c2)(c2cccc(O)c2)N=C1N` (stereo not shown) [Example 59, 2-amino-5-(3-hydroxyphenyl)-5-(1H-pyrrol-3-yl)-3-methyl-3,5-dihydro-4H-imidazol-4-one] showed a melting point of 142 to 145 °C. The IC50 on human BACE1 is above 1000 nM.

With `Cc1nn(CC(F)(F)F)cc1C1(c2cccc(-c3cccnc3F)c2)N=C(N)N(C)C1=O` (stereo not shown) [Example 11, 2-Amino-5-[3-(2-fluoropyridin-3-yl)phenyl]-3-methyl-5-[3-methyl-1-(2,2,2-trifluoroethyl)-1H-pyrazol-4-yl]-3,5-dihydro-4H-imidazol-4-one], the melting point is 128 to 132 °C. The molecule further displayed an IC50 at human BACE1 of 110 to 1000 nM.

`CC(C)n1cc(C2(c3ccc(F)c(Br)c3)N=C(N)N(C)C2=O)cn1` (stereo not shown) [Example 95, 2-amino-5-(3-bromo-4-fluorophenyl)-5-(1-isopropyl-1H-pyrazol-4-yl)-3-methyl-3,5-dihydro-4H-imidazol-4-one] displayed a melting point of 80 to 82 °C.

`CCC1(c2cc(C3(c4cccc(-c5cccnc5F)c4)N=C(N)N(C)C3=O)cs2)OCCO1` (stereo not shown) [Example 113] displayed a melting point of 93 to 103 °C.

`CN1C(=O)C(c2cccc(Br)c2)(c2cnn(CC(F)(F)F)c2)N=C1N` (stereo not shown) [Example 81, 2-amino-5-(3-bromophenyl)-3-methyl-5-[1-(2,2,2-trifluoroethyl)-1H-pyrazol-4-yl]-3,5-dihydro-4H-imidazol-4-one]: the melting point was in the range of 80 to 82 °C.

For `CCn1cc(C2(c3cccc(-c4cccnc4F)c3)N=C(N)N(C)C2=O)cc1/C=N/OC` (stereo not shown) [Example 241, 4-[2-Amino-4-[3-(2-fluoropyridin-3-yl)phenyl]-1-methyl-5-oxo-4,5-dihydro-1H-imidazol-4-yl]-1-ethyl-1H-pyrrole-2-carbaldehyde O-methyloxime hydrochloride], the IC50 at human BACE1 was 10 to 100 nM.

The molecule `COC(=O)c1cc([C@]2(c3cccc(-c4cccnc4F)c3)N=C(N)N(C)C2=O)cn1CCF` [257 A] displayed an IC50 at human BACE1 of 10 to 100 nM.

At human BACE1, `CCC(=O)c1cc(C2(c3cccc(-c4cccnc4F)c3)N=C(N)N(C)C2=O)cn1CCC(C)C` (stereo not shown) [Example 153] gave an IC50 of 10 to 100 nM.

`COc1ccc(C2(c3cc(-c4ccc(F)cc4)cs3)N=C(N)N(C)C2=O)cc1C` (stereo not shown) [Example 111, 2-Amino-5-[4-(4-fluorophenyl)thien-2-yl]-5-(4-methoxy-3-methylphenyl)-3-methyl-3,5-dihydro-4H-imidazol-4-one]: on human BACE1, the IC50 was in the range of 110 to 1000 nM.

`COC(=O)c1cc([C@@]2(c3ccc(F)c(-c4cncnc4)c3)N=C(N)N(C)C2=O)cn1CC(F)(F)F` [258 B] gave an IC50 at human BACE1 above 1000 nM.

As for `CN1C(=O)C(c2ccsc2)(c2ccc(F)c(-c3cccnc3)c2)N=C1N` (stereo not shown) [Example 40], the IC50 at human BACE1 fell in the range of 10 to 100 nM.

In turn, `CCC(=O)c1cc(C2(c3cccc(-c4cccnc4F)c3)N=C(N)N(C)C2=O)cs1` (stereo not shown) [Example 115, 2-Amino-5-[3-(2-fluoro-pyridin-3-yl)-phenyl]-3-methyl-5-(5-propionyl-thiophen-3-yl)-3,5-dihydro-imidazol-4-one] gave a melting point of 98 to 112 °C.

The molecule `CCC(=O)c1cc(C2(c3cccc(-c4cc(F)cnc4F)c3)N=C(N)N(C)C2=O)cn1CCF` (stereo not shown) [Example 151, 2-Amino-5-[3-(2,5-difluoropyridin-3-yl)phenyl]-5-[1-(2-fluoro-ethyl)-5-propionyl-1H-pyrrol-3-yl)-3-methyl-3,5-dihydro-4H-imidazol-4-one] registered an IC50 at human BACE1 of 10 to 100 nM.

In turn, `CCC(=O)c1cc([C@@]2(c3cccc(-c4cccnc4F)c3)N=C(N)N(C)C2=O)cn1CCCCF` [250 B] yielded an IC50 on human BACE1 above 1000 nM.

At human BACE1, `CCn1cc(C2(c3cncnc3)N=C(N)N(C)C2=O)cn1` (stereo not shown) [Example 42, 2-Amino-5-(1-ethyl-1H-pyrazol-4-yl)-3-methyl-5-(3-pyrimidin-5-yl)-3,5-dihydro-4H-imidazol-4-one] gave an IC50 of 10 to 100 nM.

With `CCn1cc(C2(c3cccc(-c4cccnc4F)c3)N=C(N)N(C)C2=O)cc1/C=N/OC` (stereo not shown) (as salt: hydrochloride) [Example 241, 4-[2-Amino-4-[3-(2-fluoropyridin-3-yl)phenyl]-1-methyl-5-oxo-4,5-dihydro-1H-imidazol-4-yl]-1-ethyl-1H-pyrrole-2-carbaldehyde O-methyloxime hydrochloride], the melting point was 190 to 193 °C.

`CCn1ccc(C2(c3cccc(Br)c3)N=C(N)N(C)C2=O)c1` (stereo not shown) [Example 50, 2-Amino-5-(3-bromophenyl)-5-(1-ethyl-1H-pyrrol-3-yl)-3-methyl-3,5-dihydro-4H-imidazol-4-one] showed a melting point of 138 to 140 °C.

Consider `CCCn1cc([C@]2(c3cccc(-c4cccnc4F)c3)N=C(N)N(C)C2=O)cc1C(=O)CC` [254 A], for which the IC50 at human BACE1 was in the range of 10 to 100 nM.

As to `CCC(=O)c1cc([C@@]2(c3cccc(-c4cccnc4F)c3)N=C(N)N(C)C2=O)cn1CCF` [256 B], at human BACE1, the IC50 is above 1000 nM.

`CCC(=O)c1cc([C@]2(c3cccc(-c4cccnc4F)c3)N=C(N)N(C)C2=O)cn1CC1CC1` [251 A] came in with an IC50 at human BACE1 of 10 to 100 nM.

For `CCC(=O)c1cc([C@@]2(c3cccc(-c4cccnc4F)c3)N=C(N)N(C)C2=O)cn1CCCC(F)(F)F` [252 B], the IC50 at human BACE1 is above 1000 nM.

For the molecule `CCCn1cc([C@@]2(c3cccc(-c4cccnc4F)c3)N=C(N)N(C)C2=O)cc1C(=O)CC` [254 B], the IC50 at human BACE1 is above 1000 nM.

`CCC(=O)c1cc([C@]2(c3cccc(-c4cccnc4F)c3)N=C(N)N(C)C2=O)cn1CCCCF` [250 A] yielded an IC50 at human BACE1 of 10 to 100 nM.

In turn, `CCC(=O)c1cc([C@@]2(c3cccc(-c4cccnc4F)c3)N=C(N)N(C)C2=O)cn1CC(F)F` [253 B] yielded an IC50 on human BACE1 above 1000 nM.

As for `CCn1cc([C@]2(c3cccc(-c4cccnc4F)c3)N=C(N)N(C)C2=O)cc1C(=O)C1CC1` [243 A], the half-maximal inhibitory concentration (IC50) at human BACE1 was 10 to 100 nM.

As for `CN1C(=O)C(c2cccc(Br)c2)(c2ccn(CC(F)(F)F)c2)N=C1N` (stereo not shown) [Example 51, 2-Amino-5-(3-bromophenyl)-3-methyl-5-[1-(2,2,2-trifluoroethyl)-1H-pyrrol-3-yl]-3,5-dihydro-4H-imidazol-4-one], the melting point was in the range of 74 to 76 °C.

For `CC(C)n1cc(C2(c3ccc(F)c(-c4cncnc4)c3)N=C(N)N(C)C2=O)cn1` (stereo not shown) [Example 96], the melting point was in the range of 110 to 113 °C.
